# Patent US20230302131A1, “MPC INHIBITION FOR PRODUCING T-CELLS WITH A MEMORY PHENOTYPE” (UNIVERSITÉ DE LAUSANNE, priority 2020, published 2023)
# System: adult human CD8 T cells
# Assay: Adult human PBMC activation with anti-CD3/CD28 beads, T cell phenotype by flow cytometry
# Format: cell-based
# Conditions: adult PBMCs, day 9, vs DMSO
# Protocol: FIG. 7: MPC inhibition during the activation and culture of adult human T cells induces a memory phenotype. (A) Experimental design. PBMCs were isolated from adult healthy volunteers and activated with anti-CD3/CD28 beads in the presence of DMSO or UK5099 (25 μM). Beads were removed at day 5 and T cell phenotype was analysed at day 9. (B) Percentage of CD8 T cells expressing the memory marker CD62L. (C) The mean fluorescent intensity of CD62L in the respective positive population. (D) Percentage of CD8 T cells expressing markers that allows their identification as stem cell memory T cells (TSCM). (E-F) Mitochonrial mass (identified by MitoGreen staining, E) and mitochondrial membrane potential (TMRM, F), measured by flow cytometry and expressed as fold change as compared to DMSO. (G) Mitochondrial membrane potential normalized for the mitochondrial mass, expressed as the ratio of […], fold change as compared to DMSO. Pooled data from 2 independant experiments. ns: non-significant, *p<0.05, **[…], ***p<0.001. Data represents mean±s.e.m.
# Heparinised blood was diluted with PBS and pipetted on top of Ficoll-paque (LymphoPrep). After centrifugation at 1800 rpm for 20 minutes at room temperature, the layer of cells at the intersection, containing the PBMCs was removed, washed and resuspended at 5×10^5 cells/ml of RPMI medium containing 8% human serum (AB serum), antibiotics, 2 mM L-Glutamine, 1% non-essential amino acids, 1 mM sodium pyruvate and 50 μM β-mercaptoethanol (all Gibco). Cells were activated with Human T-activator CD3/CD28 Dynabeads at a 1 bead/cell ratio with 150 IU/ml human recombinant IL2 and DMSO or 25 μM UK5099. Throughout the culture, cells were regularly split when necessary and beads were removed at day 5. At day 9, a fraction of the cells was stained with antibodies for flow cytometry analysis or for mitochondrial analysis.
smiles,measurement,setting,value
CC(C)(O)CNc1nc(Nc2ccnc(C(F)(F)F)c2)nc(-c2cccc(C(F)(F)F)n2)n1 [AG221],population of CD8 T cells positive for CD62L,UK5099 25 μM,further induce
same,mean fluorescent intensity of the CD62L signal in the CD62L-positive cells,,increased
